Test results published in US11497738B2, “Di-substituted pyrazole compounds for the treatment of diseases” (FGH BIOTECH, INC., priority 2016, dated 2022).

Tested on: SCD1 expression
Assay: Inhibition assay: qPCR of SCD1 expression in HepG2 cells (Biological Example 1)
Format: cell-based
Conditions: Homo sapiens, 24 hours; for inhibition at 10 µM: read-out: Inhibition Percentage (%) 10 μM (SCD1 expression); for inhibition at 1 µM: read-out: Inhibition Percentage (%) 1 μM (SCD1 expression)
Protocol: HepG2 cells were grown in Dulbecco's Modified Eagle Medium (DMEM) containing 5% FBS and antibiotic-antimycotic in a humidified incubator at 37° C. with 5% CO2. All three components were purchased from ThermoFisher Scientific (Catalog numbers are 11995073, 26140079, and 15240062, respectively). Treatments were done in duplicates for each dose of each compound. For control and treated each treatment, 400,000 HepG2 cells were seeded onto 1 well of 24-well plate. After one day in culture, cells were treated with the test compound (1 μM and/or 10 μM, as indicated below in Table 1) for 24 hours in DMEM with 5% FBS. Compounds were diluted using DMSO from 20 mM stocks. Total RNAs were extracted using RNA extraction kit (Cat #: 45001163, Fisher Scientific) or Trizol. If Trizol was used, RNAs were treated with DNase I (cat #: 18068015, ThermoFisher Scientific) before qPCR. RNA concentrations were measured on a Nanodrop. One-step qPCR were performed using SYBR Green One Step qPCR Kit (Cat #: B25002, Biotool). 10 ng RNA was used in each 10-ul reaction. Triplicate reactions were done for each RNA sample. qPCR was performed on an ABI StepOnePlus using the program: Holding stage step 1, 50° C. 3 min, step 2, 95° C. 5 min; Cycling stage (40 cycles) step 1, 95° C. 10 sec, step 2, 60° C. 30 sec. Primer sequence was as follows: SCD1, 5′-[…]-3′/5′-[…]-3′.
All data was measured in HepG2 cells. % inhibition data of SCD1 expression are provided in Table 1. % inhibition at 10 μM is provided as follows: A≥75%; 75%>B≥50%; 50%>C≥10%. % inhibition at 1 μM is provided as follows: A1≥30%; 30%>B1≥2%. NI means no inhibition in the assay at the indicated concentration of compound tested. NT means not tested.

SMILES	inhibition at 10 µM	inhibition at 1 µM
CCCc1cc(-n2cc(-c3ccc(NS(=O)(=O)C4CC4)cc3)cn2)ccn1 [Example 1, N-(4-(1-(2-propylpyridin-4-yl)-1H-pyrazol-4-yl)phenyl)cyclopropanesulfonamide]	> 75%	–
CCCc1cc(-n2cc(-c3ccc(NS(=O)(=O)CC4CC4)cc3)cn2)ccn1 [Example 2, 1-cyclopropyl-N-(4-(1-(2-propylpyridin-4-yl)-1H-pyrazol-4-yl)phenyl)methanesulfonamide]	> 75%	–
CCCc1cc(-n2cc(-c3ccc(NCC(C)C)cc3)cn2)ccn1 [Example 3, N-isobutyl-4-(1-(2-propylpyridin-4-yl)-1H-pyrazol-4-yl)aniline]	> 75%	–
CCCc1cc(-n2cc(-c3ccc(NS(=O)(=O)C(C)C)cc3)cn2)ccn1 [Example 4, N-(4-(1-(2-propylpyridin-4-yl)-1H-pyrazol-4-yl)phenyl)propane-2-sulfonamide]	> 75%	–
CCCc1cc(-n2cc(-c3ccc(NS(=O)(=O)C4CC4)nc3)cn2)ccn1 [Example 5, N-(5-(1-(2-propylpyridin-4-yl)-1H-pyrazol-4-yl)pyridin-2-yl)cyclopropanesulfonamide]	10 to 50%	–
CCCc1cc(-n2cc(-c3ccc(NC(C)C)cc3)cn2)ccn1 [Example 6, N-isopropyl-4-(1-(2-propylpyridin-4-yl)-1H-pyrazol-4-yl)aniline]	> 75%	–
CCCc1cc(-n2cc(-c3ccc(NC(C)C)nc3)cn2)ccn1 [Example 7, N-isopropyl-5-(1-(2-propylpyridin-4-yl)-1H-pyrazol-4-yl)pyridin-2-amine]	> 75%	–
CCCc1cc(-n2cc(-c3ccc(NCC(C)C)nc3)cn2)ccn1 [Example 8, N-isobutyl-5-(1-(2-propylpyridin-4-yl)-1H-pyrazol-4-yl)pyridin-2-amine]	> 75%	–
CCCc1cc(-n2cc(-c3ccc(NS(C)(=O)=O)cc3Cl)cn2)ccn1 [Example 9, N-(3-chloro-4-(1-(2-propylpyridin-4-yl)-1H-pyrazol-4-yl)phenyl)methanesulfonamide]	> 75%	≥ 30%
CCCc1cc(-n2cc(-c3ccc(NS(=O)(=O)C4CC4)cc3Cl)cn2)ccn1 [Example 10, N-(3-chloro-4-(1-(2-propylpyridin-4-yl)-1H-pyrazol-4-yl)phenyl)cyclopropanesulfonamide]	> 75%	≥ 30%
CCCc1cc(-n2cc(-c3ccc(NS(=O)(=O)C(F)(F)F)cc3Cl)cn2)ccn1 [Example 11, N-(3-chloro-4-(1-(2-propylpyridin-4-yl)-1H-pyrazol-4-yl)phenyl)-1,1,1-trifluoromethanesulfonamide]	10 to 50%	–
CCCc1cc(-n2cc(-c3ccc(NC(C)C)cc3Cl)cn2)ccn1 [Example 13, 3-chloro-N-isopropyl-4-(1-(2-propylpyridin-4-yl)-1H-pyrazol-4-yl)aniline]	> 75%	≥ 30%
CCCc1cc(-n2cc(-c3ccc(NCC(C)C)cc3Cl)cn2)ccn1 [Example 14, 3-chloro-N-isobutyl-4-(1-(2-propylpyridin-4-yl)-1H-pyrazol-4-yl)aniline]	> 75%	≥ 30%
CCCc1cc(-n2cc(-c3ccc(NCC(C)C)cn3)cn2)ccn1 [Example 15, N-isobutyl-6-(1-(2-propylpyridin-4-yl)-1H-pyrazol-4-yl)pyridin-3-amine]	> 75%	2 to 30%
CCCc1cc(-n2cc(-c3ccc(NCC4CC4)cn3)cn2)ccn1 [Example 16, N-(cyclopropylmethyl)-6-(1-(2-propylpyridin-4-yl)-1H-pyrazol-4-yl)pyridin-3-amine]	> 75%	2 to 30%
CCCc1cc(-n2cc(-c3ccc(NCC4CC4)cc3Cl)cn2)ccn1 [Example 17, 3-chloro-N-(cyclopropylmethyl)-4-(1-(2-propylpyridin-4-yl)-1H-pyrazol-4-yl)aniline]	> 75%	≥ 30%
CCCc1cc(-n2cc(-c3ccc(NS(=O)(=O)C4CC4)cn3)cn2)ccn1 [Example 18, N-(6-(1-(2-propylpyridin-4-yl)-1H-pyrazol-4-yl)pyridin-3-yl)cyclopropanesulfonamide]	> 75%	–

SMILES	inhibition at 10 µM	inhibition at 1 µM
CCCc1cc(-n2cc(-c3ccc(NS(=O)(=O)CC4CC4)cn3)cn2)ccn1 [Example 19, 1-cyclopropyl-N-(6-(1-(2-propylpyridin-4-yl)-1H-pyrazol-4-yl)pyridin-3-yl)methanesulfonamide]	> 75%	2 to 30%
CCCc1cc(-n2cc(-c3ccc(NS(C)(=O)=O)cn3)cn2)ccn1 [Example 20, N-(6-(1-(2-propylpyridin-4-yl)-1H-pyrazol-4-yl)pyridin-3-yl)methanesulfonamide]	10 to 50%	–
CCCc1cc(-n2cc(-c3ccc(NC(C)C)cn3)cn2)ccn1 [Example 21, N-isopropyl-6-(1-(2-propylpyridin-4-yl)-1H-pyrazol-4-yl)pyridin-3-amine]	> 75%	2 to 30%
CCCc1cc(-n2cc(-c3ccc(NC4CCCC4)cn3)cn2)ccn1 [Example 23, N-cyclopentyl-6-(1-(2-propylpyridin-4-yl)-1H-pyrazol-4-yl)pyridin-3-amine]	> 75%	2 to 30%
CCCc1cc(-n2cc(-c3ncc(NC(C)C)cc3Cl)cn2)ccn1 [Example 24, 5-chloro-N-isopropyl-6-(1-(2-propylpyridin-4-yl)-1H-pyrazol-4-yl)pyridin-3-amine]	> 75%	≥ 30%
CCCc1cc(-n2cc(-c3ncc(NC4CCCC4)cc3Cl)cn2)ccn1 [Example 25, 5-chloro-N-cyclopentyl-6-(1-(2-propylpyridin-4-yl)-1H-pyrazol-4-yl)pyridin-3-amine]	> 75%	≥ 30%
CCCc1cc(-n2cc(-c3ncc(NCC(C)C)cc3Cl)cn2)ccn1 [Example 26, 5-chloro-N-isobutyl-6-(1-(2-propylpyridin-4-yl)-1H-pyrazol-4-yl)pyridin-3-amine]	> 75%	≥ 30%
CCCc1cc(-n2cc(-c3ncc(NCC4CC4)cc3Cl)cn2)ccn1 [Example 27, 5-chloro-N-(cyclopropylmethyl)-6-(1-(2-propylpyridin-4-yl)-1H-pyrazol-4-yl)pyridin-3-amine]	> 75%	≥ 30%
CCCc1cc(-n2cc(-c3ncc(NS(=O)(=O)C4CC4)cc3Cl)cn2)ccn1 [Example 28, N-(5-chloro-6-(1-(2-propylpyridin-4-yl)-1H-pyrazol-4-yl)pyridin-3-yl)cyclopropanesulfonamide]	> 75%	2 to 30%
CCCc1cc(-n2cc(-c3ncc(NS(=O)(=O)CC4CC4)cc3Cl)cn2)ccn1 [Example 29, N-(5-chloro-6-(1-(2-propylpyridin-4-yl)-1H-pyrazol-4-yl)pyridin-3-yl)-1-cyclopropylmethanesulfonamide]	> 75%	2 to 30%
CCCc1cc(-n2cc(-c3ncc(NS(C)(=O)=O)cc3Cl)cn2)ccn1 [Example 30, N-(5-chloro-6-(1-(2-propylpyridin-4-yl)-1H-pyrazol-4-yl)pyridin-3-yl)methanesulfonamide]	50 to 75%	–
CCCc1cc(-n2cc(-c3ccc(NC4CCCC4)nc3)cn2)ccn1 [Example 32, N-cyclopentyl-5-(1-(2-propylpyridin-4-yl)-1H-pyrazol-4-yl)pyridin-2-amine]	> 75%	–
CCCc1cc(-n2cc(-c3ccc(NC4CCC4)nc3)cn2)ccn1 [Example 33, N-cyclobutyl-5-(1-(2-propylpyridin-4-yl)-1H-pyrazol-4-yl)pyridin-2-amine]	> 75%	≥ 30%
CCCc1cc(-n2nc(C)c(-c3ccc(NCC(C)C)nc3)c2C)ccn1 [Example 34, 5-(3,5-dimethyl-1-(2-propylpyridin-4-yl)-1H-pyrazol-4-yl)-N-isobutylpyridin-2-amine]	50 to 75%	2 to 30%
CCCc1cc(-n2nc(C)c(-c3ccc(NCC4CC4)nc3)c2C)ccn1 [Example 35, N-(cyclopropylmethyl)-5-(3,5-dimethyl-1-(2-propylpyridin-4-yl)-1H-pyrazol-4-yl)pyridin-2-amine]	50 to 75%	2 to 30%
CCCc1cc(-n2nc(C)c(-c3ccc(NC(C)C)nc3)c2C)ccn1 [Example 36, 5-(3,5-dimethyl-1-(2-propylpyridin-4-yl)-1H-pyrazol-4-yl)-N-isopropylpyridin-2-amine]	50 to 75%	–
CCCc1cc(-n2nc(C)c(-c3ccc(NC4CCC4)nc3)c2C)ccn1 [Example 38, N-cyclobutyl-5-(3,5-dimethyl-1-(2-propylpyridin-4-yl)-1H-pyrazol-4-yl)pyridin-2-amine]	> 75%	≥ 30%
